Experiments:
[1] = Topical administration of heptanol to rabbit eyes, intraocular pressure (IOP) in vivo; details: topical administration of 1.0% heptanol to the eyes (FIG. 1)
From the text: FIG. 1 illustrates the effects of topical administration of 1.0% heptanol to rabbit eyes.

ciliary epithelium [2] = assay: In vitro short-circuit current across the ciliary epithelium (rabbit)
ciliary epithelium [3] = assay: In vitro short-circuit current across the ciliary epithelium (ox)
ciliary epithelium [4] = assay: In vitro short-circuit current across the ciliary epithelium (pig)
[5] = test system: porcine ciliary epithelium; assay: Fluid flow (FF) across the ciliary epithelium in modified Ussing-type chamber; details: aqueous addition of 3.5 mM heptanol, 25° C., n=6 (FIG. 2)
From the text: The reasons being that firstly, no information was available at the time to teach the preparation an intact ciliary epithelium, which is required for fluid flow measurement, and secondly, even when an intact ciliary epithelium was used, there was no device available that would enable measurement of fluid flow across the ciliary epithelium. In view of this, the inventors invested a great deal of effort into developing a modified Ussing-type chamber, which enables fluid flow (FF) and potential difference across the ciliary epithelium to be measured simultaneously. Fundamentally, the Ussing-type chamber includes two hemi-chambers, between which an excised preparation of ciliary epithelium is mounted. […] The graduated capillary can be used to monitor the change in fluid volume inside the second hemi-chamber throughout the experiment, which is then calculated as FF rate. […] At a later stage, the inventors further incorporated electrodes into the FF chamber to enable both electrical parameters and FF to be monitored simultaneously. […] (A) The calculated FF rate in the blood-to-aqueous direction during the course of the experiment. (B) PD recorded simultaneously with the measurement of the capillary levels.

CCCCCCCO [heptanol]
effectiveness in lowering intraocular pressure (IOP) [1]: inconclusive results | reduction of short-circuit current across the ciliary epithelium (ciliary epithelium [2]): ~80% | reduction of short-circuit current across the ciliary epithelium (ciliary epithelium [3]): ~80% | reduction of short-circuit current across the ciliary epithelium (ciliary epithelium [4]): ~80% | inhibition of fluid flow across the ciliary epithelium [5]: up to 78%
